Among the data in US6281218A, “Benzimidazolone derivatives having mixed serotonin and dopamine receptors affinity” (Ingelheim Italia S.p.A., priority 1999, dated 2001) are Ki values, retold here.

In assay [1] the target is T1, 5-HT1A receptor (Rattus norvegicus, UniProt P19327).
T1 construct: from tissue; host or cells: rat hippocampus (male Sprague-Dawley)
T1 sequence (P19327 1-422): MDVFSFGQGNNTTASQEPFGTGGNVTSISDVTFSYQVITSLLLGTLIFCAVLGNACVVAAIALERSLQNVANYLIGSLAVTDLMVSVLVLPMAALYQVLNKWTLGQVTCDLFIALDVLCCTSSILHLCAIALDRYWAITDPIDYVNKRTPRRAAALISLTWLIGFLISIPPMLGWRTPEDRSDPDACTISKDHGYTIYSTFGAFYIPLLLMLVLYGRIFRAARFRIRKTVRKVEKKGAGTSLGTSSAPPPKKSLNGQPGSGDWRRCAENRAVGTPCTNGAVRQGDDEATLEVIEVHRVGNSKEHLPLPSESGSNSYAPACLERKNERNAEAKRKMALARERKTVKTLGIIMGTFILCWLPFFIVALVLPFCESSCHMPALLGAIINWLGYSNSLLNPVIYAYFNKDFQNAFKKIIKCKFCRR
Put plainly: 5-HT1A receptor binding, [3H]-8-OH-DPAT displacement. Conditions: rat hippocampus tissue, read-out: K1 (nM) for 5-HT1A (rat hippocampus tissue). The procedure:
Male Sprague-Dawley rats (200-250 g) were used. The hippocampus taken from these animals was homogenized in 10 volumes of ice cold 50 mM TIUS buffer (pH 7.4). The homogenate was diluted 1:400 (w:v) in the same buffer to have a final protein concentration of about 200 μg/ml, filtered and incubated at 37° C. for 10 minutes before use.
Displacement experiments were performed by incubating the homogenate (980 μl) in the presence of [^3 H]-8-OH-DPAT (10 μl; 1.0-1.2 nM) and different concentrations of the test compounds dissolved in DMSO (10 μl), at 30° C. for 15 minutes (final volume: 1 ml). Nonspecific binding was determined in the presence of 10 μM 5-HT (10 μl). The reaction was stopped by rapid filtration through Inotech IH 201 filters using an Inotech Cell Harvester. The radioactivity was counted by liquid scintillation spectrometry.
(§1) The affinity values (Ki) for the compounds were obtained by a nonlinear least squares regression analysis on the basis of a one binding site model. The values were corrected on the basis of the radioligand occupancy on the receptors according to the equation: Ki =IC50 /(1+[C]/Kd), where [C] and Kd represent the concentration and the dissociation constant of the used radioligands ([^3 H]-8-OH-DPAT for the 5-HT1A binding, [^3 H]-Ketanserine for the 5-HT2A binding and [^3 H]-YM 09151-2) for the D4 binding, respectively).

Assay [2] addresses T2, 5-HT2A receptor (Rattus norvegicus, UniProt P14842).
T2 construct: Cerebral cortex was homogenized in 10 volumes of ice cold 0.32 M sucrose; from tissue; host or cells: rat cerebral cortex (male Sprague-Dawley)
Briefly: 5-HT2A receptor binding, [3H]-Ketanserine displacement. Conditions: rat cortex tissue, read-out: K1 (nM) for 5-HT2A (Rat cortex tissue). The procedure:
Male Sprague-Dawley rats (200-250 g) were used. Cerebral cortex was homogenized in 10 volumes of ice cold 0.32 M sucrose. After the centrifugation of the homogenate (1,000×g for 10 minutes) the supernatant was then recentrifuged at 48,000×g for 15 minutes. The resulting pellet was suspended in 10 volumes of 50 mM TRIS buffer (pH 7.4), incubated at 37° C. for 10 minutes and recentrifuged at 48,000 × g for 15 minutes. The residue was then resuspended in 10 volumes of 50 mM TRIS buffer (pH 7.4).
The tissue was diluted 1:100 (w:v) in 50 mM TRIS buffer (pH 7.4) to have a final concentration of about 200 μg/ml. Displacement experiments were performed by incubating the homogenate (980 μl) in the presence of [^3 H]-Ketanserine (10 μl; 0.5-0.6 nM) and different concentrations of the test compounds dissolved in DMSO (10 μl) at 37° C. for 10 minutes (final volume: 1 ml). Nonspecific binding was determined in the presence of 100 μM Methysergide (10 μl). The reaction was stopped by rapid filtration through Inotech IH 201 filters using an Inotech Cell Harvester. The radioactivity was counted by liquid scintillation spectrometry.
as §1

Assay [3] deals with T3, D4 receptor (Homo sapiens, UniProt P21917).
T3 construct: expressed in transfected cells; host or cells: CHO cells
T3 sequence (P21917 1-419): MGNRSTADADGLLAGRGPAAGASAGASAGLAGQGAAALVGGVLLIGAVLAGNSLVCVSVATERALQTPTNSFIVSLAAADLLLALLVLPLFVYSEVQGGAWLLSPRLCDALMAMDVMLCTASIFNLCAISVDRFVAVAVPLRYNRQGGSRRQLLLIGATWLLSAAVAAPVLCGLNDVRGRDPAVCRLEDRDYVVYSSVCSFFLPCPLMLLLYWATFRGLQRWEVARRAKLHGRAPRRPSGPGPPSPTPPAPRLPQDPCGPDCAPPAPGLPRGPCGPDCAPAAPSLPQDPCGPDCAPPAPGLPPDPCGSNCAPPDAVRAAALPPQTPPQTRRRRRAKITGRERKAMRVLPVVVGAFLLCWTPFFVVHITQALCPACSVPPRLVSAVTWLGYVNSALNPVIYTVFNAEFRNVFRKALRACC
Briefly: D4 receptor binding, [3H]-YM 09151-2 displacement. Conditions: CHO cell membranes, read-out: K1 (nM) for D4 (CHO cell membranes). As for the experimental part:
Cells were grown in monolayer at 37° C. in 95% air/5% CO2 in Dulbecco's Modified Eagle Medium (DMEM) supplemented with 7.5% (v/v) heat-inactivated fetal bovine serum (FBS), 2.5% (v/v) heat-inactivated horse serum donor herd, 2% of a stock solution containing 5000 I.U./ml penicillin and 5000 μg/ml streptomycin, 1% (v/v) of a solution MEM containing non-essential amino acid, 2 mM glutamine ind 200 μg/ml geneticin. Cells were passaged twice a week using a trypsin/EDTA solution and the split rate was 1:4. Cells were not subcultured more than 17 times.
Preparation of cell membranes:
The cells grown to confluence were washed twice with Dulbecco's PBS buffer and were detached adding VERSENE (PBS containing 0.2 g/l EDTA) for 10 minutes at 37° C. The cell suspension was centrifuged at 1,000 rpm for 10 minutes and the pellet was harvested in DMEM with 10% DMSO and stored at -80° C. Before use, cells were thawed, centrifuged at 1,000 rpm for 10 minutes and the pellet was resuspended in PBS. The cells were centrifuged again at 270×g for 10 minutes at 4° C. and the pellet was resuspended in a lysis buffer (10 mM Tris-HCl pH 7.4, 5 mM Na2 EDTA and protease inhibitors) and incubated for 30 minutes on ice. Cells were homogenized with an Ultra Turrax homogenizer. Unbroken cells and nuclei were removed by an initial centrifugation at 270×g for 10 minutes at 4° C. and crude membranes were collected from the supernatant by a 60 minute spin at 130,000×g. The pelleted membranes were resuspended in the same lysis buffer with 20 strokes by a Potter homogenizer. The final cell membrane suspension, corresponding to about 1×10^7 original cells/ml, was aliquoted and immediately frozen at -80° C.
D4 receptor binding studies were carried out in membranes from CHO cells prepared as above. The membranes were dilute in incubation buffer (50 ml/ TRIS-HCl pH 7.4, 5 mM MgCl2·6H2 O, 5 mM KCl, 1.5 mM CaCl2·2H2 O, 5 mM EDTA) according to their receptor density.
Displacement experiment were performed in 1000 μl total volume incubating the membranes (980 μl) in the presence of [^3 H]-YM 09151-2 (10 μl; 0.15-0.25 nM) and different concentrations of the test compounds dissolved in DMISO (10 μl) at 27° C. for two hours. Nonspecific binding was determined in the presence of 10 μM of Clozapine (10 μl). The reaction was stopped by rapid filtration through Inotech IH 201 filters (pre-soaked in 0.1% polyethyleneimine) using an Inotech Cell Harvester. The radioactivity was counted by liquid scintillation spectrometry.
as §1

T2 sequence (P14842 whole entry): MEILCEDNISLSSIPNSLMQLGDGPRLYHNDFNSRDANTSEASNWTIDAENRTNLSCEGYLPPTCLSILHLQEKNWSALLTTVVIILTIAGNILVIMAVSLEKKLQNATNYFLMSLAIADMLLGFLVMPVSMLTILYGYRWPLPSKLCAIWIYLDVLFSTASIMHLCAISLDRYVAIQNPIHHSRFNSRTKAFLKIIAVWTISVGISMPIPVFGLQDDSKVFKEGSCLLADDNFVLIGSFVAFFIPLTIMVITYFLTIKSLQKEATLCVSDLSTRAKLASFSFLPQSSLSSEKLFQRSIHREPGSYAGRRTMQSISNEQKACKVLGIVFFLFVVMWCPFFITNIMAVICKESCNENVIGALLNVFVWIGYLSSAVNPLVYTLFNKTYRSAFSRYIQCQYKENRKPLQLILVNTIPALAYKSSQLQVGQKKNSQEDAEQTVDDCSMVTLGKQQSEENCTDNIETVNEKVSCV

`O=c1[nH]c2cc(O)ccc2n1CCN1CCN(c2cccc(C(F)(F)F)c2)CC1` [Compound 1, 5-Hydroxy-1-{2-[4-(3-trifluoromethylphenyl)piperazin-1-yl]ethyl}-1,3-dihydro-benzimidazol-2-one]: the Ki was 40.8 nM in assay [1], 58.5 nM in assay [2] and 287 nM in assay [3].
Take `O=c1[nH]c2ccc(O)cc2n1CCN1CCN(c2cccc(C(F)(F)F)c2)CC1` [Compound 2, 6-Hydroxy-1-{2-[4-(3-trifluoromethylphenyl)piperazin-1-yl]ethyl}-1,3-dihydro-benzimidazol-2-one]: the Ki was found to be 333 nM in assay [1], 33.8 nM in assay [2] and 804 nM in assay [3].
As for `O=c1[nH]c2c(O)cccc2n1CCN1CCN(c2cccc(C(F)(F)F)c2)CC1` [Compound 3, 4-Hydroxy-1-{2-[4-(3-trifluoromethylphenyl)piperazin-1-yl]ethyl}-1,3-dihydro-benzimidazol-2-one], the Ki in assay [1] came out at 15.4 nM; in assay [2], 43.8 nM; in assay [3], 33.9 nM.
The corresponding values for `O=c1[nH]c2cccc(O)c2n1CCN1CCN(c2cccc(C(F)(F)F)c2)CC1` [Compound 4, 7-Hydroxy-1-{2-[4-(3-trifluoromethylphenyl)piperazin-1-yl]ethyl}-1,3-dihydro-benzimidazol-2-one] are 1590 nM, 23.8 nM and 652 nM.
The matching figures for `O=c1[nH]c2ccccc2n1CCN1CCN(c2ccc(O)c(C(F)(F)F)c2)CC1` [Compound 5, 1-{2-[4-(4-Hydroxy-3-trifluoromethylphenyl)piperazin-1-yl]ethyl}-1,3-dihydro-benzimidazol-2-one]: 369 nM, 705 nM and 17.8 nM.
For the molecule `O=c1[nH]c2ccccc2n1CCN1CCN(c2cc(O)cc(C(F)(F)F)c2)CC1` [Compound 6, 1-{2-[4-(3-Hydroxy-5-trifluoromethylphenyl)piperazin-1-yl]ethyl}-1,3-dihydro-benzimidazol-2-one], the values for the Ki in assay [1], in assay [2] and in assay [3] were 156 nM, 328 nM and 24.8 nM, respectively.
On to `O=c1[nH]c2ccccc2n1CCN1CCN(c2cc(C(F)(F)F)ccc2O)CC1` [Compound 7, 1-{2-[4-(2-Hydroxy-5-trifluoromethylphenyl)piperazin-1-yl]ethyl}-1,3-dihydro-benzimidazol-2-one], for which the Ki was over 10000 nM in assay [1] and 4440 nM in assay [2].
